Experimental data: the NIST ThermoML archive (doi:10.1016/j.fluid.2016.01.001)

Details: Capillary rise

COC [dimethyl ether]
Details | surface tension liquid-gas [mN/m]
214 K | 24.45
220 K | 23.51
225 K | 22.69
230 K | 21.87
235 K | 21.15
240 K | 20.43
245 K | 19.7
250 K | 18.92
255 K | 18.15
260 K | 17.39
265 K | 16.62
270 K | 15.93
275 K | 15.19
280 K | 14.47
285 K | 13.73
290 K | 13.02
295 K | 12.28
300 K | 11.57
305 K | 10.85
315 K | 9.497
320 K | 8.813
325 K | 8.137
330 K | 7.476
335 K | 6.814
340 K | 6.164
345 K | 5.528
350 K | 4.899
355 K | 4.307
360 K | 3.707
365 K | 3.142
370 K | 2.575
375 K | 2.042
380 K | 1.516
385 K | 1.054
390 K | 0.614

CCCC [butane]
Details | surface tension liquid-gas [mN/m]
278.15 K | 14.57
283.15 K | 13.96
288.15 K | 13.37
293.15 K | 12.79
298.15 K | 12.17
303.15 K | 11.53
308.15 K | 10.94
313.15 K | 10.35
318.15 K | 9.851
323.15 K | 9.286
328.15 K | 8.705
333.15 K | 8.14
338.15 K | 7.593
343.15 K | 7.043
348.15 K | 6.516
353.15 K | 5.991
358.15 K | 5.479
363.15 K | 4.981
368.15 K | 4.483
373.15 K | 4.003
378.15 K | 3.515
383.15 K | 3.049
388.15 K | 2.578
393.15 K | 2.091
398.15 K | 1.679
403.15 K | 1.29
408.15 K | 0.923
413.15 K | 0.583
417.15 K | 0.341
419.75 K | 0.186
420.35 K | 0.157
420.85 K | 0.129
421.08 K | 0.118
421.48 K | 0.1
